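Compound exposure: 48 hours, 5 concentrations, 96-well plates. The concentration for full growth arrest is given as TGI.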 Bounds are passed on as bounds.

Holding throughout (assay): NCI tumour cell line growth inhibition, 48 h
For assay [1], the system named is PC-3 prostate.
Assay [2] deals with BT-549 breast.
For assay [3], the system named is MOLT-4 leukemia.
In assay [4] the test system is SK-MEL-28 melanoma.
Assay [5] deals with U251 CNS.
The subject of assay [6] is KM12 colon.
In assay [7] the test system is DU-145 prostate.
The test system of assay [8] is 786-0 renal.
In assay [9] the test system is SF-268 CNS.
The test system of assay [10] is IGROV1 ovarian.
In assay [11] the test system is TK-10 renal.
The test system of assay [12] is UACC-257 melanoma.
For assay [13], the system named is NCI-H226 lung.
Assay [14] concerns UO-31 renal.
The test system of assay [15] is MDA-N.
Assay [16] has as its system CAKI-1 renal.
In assay [17] the test system is MALME-3M melanoma.
The test system of assay [18] is RXF 393 renal.
In assay [19] the test system is COLO 205 colon.
In assay [20] the test system is CCRF-CEM leukemia.

Consider `OCC1OC(c2cccc3cc(O)c(O)cc23)CC1O` (stereo not drawn), for which the TGI in [1], in [2], in assay [3], in assay [4], in assay [5] and in assay [6] was greater than 100 µM each time. In addition, the TGI in [7], in assay [8], in [9], in assay [10], in assay [11] and in assay [12] was greater than 100 µM in each case. In addition, the TGI in [13], in assay [14] and in assay [15] was greater than 100 µM each time.
Take `Nc1c2c(nc3cc(F)c(F)cc13)CCC2`: the TGI in [1], in assay [2], in assay [3], in [16], in assay [17] and in [4] was greater than 100 µM each time. Also, the TGI in [5], in assay [6], in assay [18], in assay [19], in assay [7] and in assay [8] was greater than 100 µM in each case. Besides, the TGI in assay [9] is greater than 100 µM; in [10] it was greater than 100 µM; in assay [11], 77.7 µM; in assay [12], greater than 100 µM; in assay [13], greater than 100 µM; in assay [14], 20.7 µM. The same compound returned a TGI in assay [15] greater than 100 µM.
With `O=Cc1cn(CCCCCCCCCCCCn2cc(C=O)c3ccccc32)c2ccccc12`, the TGI in [1], in [2], in assay [3], in assay [16], in [17] and in assay [4] was greater than 100 µM in each case. In addition, the TGI in [5], in assay [18], in assay [19], in assay [7], in assay [8] and in assay [9] was greater than 100 µM in each case. The TGI in [10], in [11], in [12], in assay [13], in assay [14] and in assay [15] was greater than 100 µM throughout.
Turning to `CCCCC1=NNC(=O)C1`, the TGI in [1], in assay [2], in assay [3], in assay [16], in assay [17] and in [4] was greater than 100 µM each time. Further, the TGI in assay [5], in assay [6], in assay [18], in assay [20], in assay [19] and in assay [8] was greater than 100 µM in each case. The TGI in assay [10], in [12], in [13], in [14] and in assay [15] was greater than 100 µM in each case.
With `CN(C(=O)C1=CCC2(CC1)OCCO2)c1ccccc1OS(=O)(=O)C(F)(F)F`, the TGI in [1], in assay [3], in [16], in assay [4], in assay [5] and in assay [6] was greater than 100 µM throughout. The TGI in assay [18] was greater than 100 µM; in [20], greater than 100 µM; in assay [19], greater than 100 µM; in assay [7], greater than 100 µM; in [8] it was greater than 100 µM; in assay [9] it was 97.6 µM. In addition, the TGI in assay [12] is greater than 100 µM; in assay [13], 85.4 µM; in [14], greater than 100 µM; in [15], greater than 100 µM.
As to `CN(CC(=O)O)c1ncc2c(n1)-c1ccccc1SC2`, the TGI in [1], in assay [3], in assay [16], in [17], in [4] and in assay [5] was greater than 100 µM each time. The TGI in assay [6], in [20], in [19], in assay [7], in assay [8] and in assay [9] was greater than 100 µM throughout. Moreover, the TGI in assay [10], in [11], in assay [12], in assay [14] and in assay [15] was greater than 100 µM in each case.
For `Nc1ccc2c(c1)N(C(=O)c1cc3cc(NC(=O)c4cc5ccccc5o4)ccc3[nH]1)CC2CCl` (stereo not drawn), the TGI is 12.2 µM in assay [1]; 1.9 µM in assay [2]; greater than 100 µM in [3]; 12.9 µM in assay [16]; 0.289 µM in assay [17]; 0.502 µM in [4]. Besides, the TGI was 12 µM in assay [5]; 2.37 µM in assay [6]; 0.0496 µM in assay [18]; 1.6 µM in assay [19]; 2.08 µM in assay [7]; greater than 37.9 µM in assay [8]. In addition, the TGI was greater than 100 µM in assay [10]; 2.07 µM in [11]; 0.329 µM in assay [13]; 13.1 µM in [14]; 0.512 µM in [15].
As to `CC1(C)CC(=O)c2[nH]c3ccccc3c2CC(=O)NCCc2cn1cn2`, the TGI in assay [1], in assay [2], in assay [3], in assay [16], in assay [17] and in assay [4] was greater than 100 µM each time. Moreover, the TGI in [5], in assay [6], in [18], in [19], in assay [7] and in assay [8] was greater than 100 µM throughout. Moreover, the TGI in [9], in assay [10], in [11], in assay [12], in assay [13] and in [14] was greater than 100 µM each time. The TGI in assay [15] is greater than 100 µM.
